These results are taken from US20090069320A1, “Substituted 4-Amino-Quinazoline Compounds with Metabotropic Glutamate Receptor Regulating Activity and Uses Thereof” (Gruenenthal GmbH, priority 2006, published 2009).

This test deals with T1, mGluR5 receptor (Sus scrofa, UniProt I3LUI7).
T1 construct: 450 μg of protein from brain homogenate with 5 nM ^3[H]-MPEP; from tissue; host or cells: pig brain halves without medulla, cerebellum and pons
The test can be described thus: [3H]-MPEP mGluR5 receptor binding assay (pig brain homogenate). The following applies: 5 nM [3H]-MPEP; for inhibition at 10 µM / % Inhibition of mGluR5 Receptor (pig) [^3H]-MPEP Bond at 10 μM: 10 μM compound; for inhibition at 10 µM: read-out: % Inhibition of mGluR5 Receptor (pig) [^3H]-MPEP Bond at 10 μM. In a few lines: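 Compounds at 10 μM competed with 5 nM [3H]-MPEP for binding to pig brain membranes (450 μg protein) for 60 min at room temperature in pH 8.0 Hepes buffer. Bound radioactivity was collected on glass-fibre filters and read by β-counting, with 10 μM unlabelled MPEP giving non-specific binding.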

T1 sequence (I3LUI7 19-1212): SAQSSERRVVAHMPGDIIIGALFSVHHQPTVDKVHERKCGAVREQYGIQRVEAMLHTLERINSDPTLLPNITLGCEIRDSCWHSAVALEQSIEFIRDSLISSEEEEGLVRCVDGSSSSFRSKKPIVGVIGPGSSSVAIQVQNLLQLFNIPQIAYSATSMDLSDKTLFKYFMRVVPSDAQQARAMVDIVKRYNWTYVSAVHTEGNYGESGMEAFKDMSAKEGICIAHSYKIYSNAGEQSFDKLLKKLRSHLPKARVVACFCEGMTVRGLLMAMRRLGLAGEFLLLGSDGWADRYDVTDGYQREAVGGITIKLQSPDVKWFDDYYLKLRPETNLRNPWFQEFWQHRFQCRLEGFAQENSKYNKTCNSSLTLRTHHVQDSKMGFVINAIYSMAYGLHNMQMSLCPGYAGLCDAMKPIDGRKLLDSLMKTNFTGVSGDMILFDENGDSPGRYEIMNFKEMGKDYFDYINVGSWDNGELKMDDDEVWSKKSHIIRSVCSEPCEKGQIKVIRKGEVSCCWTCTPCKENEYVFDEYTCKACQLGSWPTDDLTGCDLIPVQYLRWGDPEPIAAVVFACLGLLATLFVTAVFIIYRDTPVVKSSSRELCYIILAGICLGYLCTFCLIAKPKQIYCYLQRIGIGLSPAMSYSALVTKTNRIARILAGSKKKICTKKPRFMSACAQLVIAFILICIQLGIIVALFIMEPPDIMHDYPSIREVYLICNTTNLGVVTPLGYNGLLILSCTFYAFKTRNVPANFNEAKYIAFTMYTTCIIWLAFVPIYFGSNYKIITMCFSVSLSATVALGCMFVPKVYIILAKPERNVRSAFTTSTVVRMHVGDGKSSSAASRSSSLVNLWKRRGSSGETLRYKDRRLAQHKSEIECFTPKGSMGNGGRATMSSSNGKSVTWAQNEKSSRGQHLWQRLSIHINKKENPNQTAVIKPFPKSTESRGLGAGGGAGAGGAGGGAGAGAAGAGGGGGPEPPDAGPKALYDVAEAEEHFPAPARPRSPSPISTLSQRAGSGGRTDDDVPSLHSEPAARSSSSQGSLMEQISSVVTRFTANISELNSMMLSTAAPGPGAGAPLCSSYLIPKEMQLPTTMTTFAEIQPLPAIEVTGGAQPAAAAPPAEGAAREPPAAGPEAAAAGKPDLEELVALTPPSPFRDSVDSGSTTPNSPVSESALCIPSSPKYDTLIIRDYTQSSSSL

Broadly, the inhibition is the change of the read-out against control, counted positive when it falls. `CCCCC(=O)N(Cc1cc(-c2ccc3ncnc(NC4CC4)c3c2)ccc1F)C1CC1` [Example 382, N-cyclopropyl-N-(5-(4-(cyclopropylamino)quinazolin-6-yl)-2-fluorobenzyl)pentanamide]: the inhibition at 10 µM amounted to 89%.

For the compound `COc1ccc(S(=O)(=O)N(Cc2cc(-c3ccc4ncnc(NC5CC5)c4c3)ccc2F)C2CC2)cc1` [Example 383, N-cyclopropyl-N-(5-(4-(cyclopropylamino)quinazolin-6-yl)-2-fluorobenzyl)-4-methoxybenzole sulfonamide], the “% Inhibition of mGluR5 Receptor (pig) [^3H]-MPEP Bond at 10 μM” value (“% Inhibition of mGluR5 Receptor (pig)” below) is reported as 69%.

Turning to `O=C(c1cccnc1)N(Cc1cccc(-c2ccc3ncnc(NCCc4ccccc4)c3c2)c1)C1CC1` [Example 385, N-cyclopropyl-N-(3-(4-(phenethylamino)quinazolin-6-yl)benzyl)nicotinamide], the inhibition at 10 µM stood at 35%.

Consider `O=C(c1c(F)c(F)c(F)c(F)c1F)N(Cc1cc(-c2ccc3ncnc(NC4CC4)c3c2)ccc1F)C1CC1` [Example 389, N-cyclopropyl-N-(5-(4-(cyclopropylamino)quinazolin-6-yl)-2-fluorobenzyl)-2,3,4,5,6-pentafluorobenzamide], for which the inhibition at 10 µM turned out to be 91%.

What is called IC50 is the concentration that gives 50% inhibition. For `COCC(=O)N(Cc1cc(-c2ccc3ncnc(NC4CC4)c3c2)ccc1F)C1CC1` [Example 390, N-cyclopropyl-N-(5-(4-(cyclopropylamino)quinazolin-6-yl)-2-fluorobenzyl)-2-methoxyacetamide], the IC50 (read-out: IC50 mGluR5 Receptor (pig) [^3H]-MPEP Bond) came to 70 nM.

On to `O=S(=O)(c1ccc(Cl)cc1Cl)N(Cc1cc(-c2ccc3ncnc(NC4CC4)c3c2)ccc1F)C1CC1` [Example 391, 2,4-dichloro-N-cyclopropyl-N-(5-(4-(cyclopropylamino)quinazolin-6-yl)-2-fluorobenzyl)benzole sulfonamide], for which the “% Inhibition of mGluR5 Receptor (pig)” value is recorded as 74%.

Take `CC(=O)N(Cc1cccc(-c2ccc3ncnc(NCCc4ccccc4)c3c2)c1)C1CC1` [Example 393, N-cyclopropyl-N-(3-(4-(phenethylamino)quinazolin-6-yl)benzyl)acetamide]: the inhibition at 10 µM came out at 95%.

In the case of `Cc1cccc(CNc2ncnc3ccc(-c4cccc(CN(C(=O)c5ccccn5)C5CC5)c4)cc23)c1` [Example 395, N-cyclopropyl-N-(3-(4-(3-methylbenzylamino)quinazolin-6-yl)benzyl)picolinamide], the inhibition at 10 µM came out at 44%.

For `O=C(c1ccc(C(F)(F)F)cc1F)N(Cc1cc(-c2ccc3ncnc(NC4CC4)c3c2)ccc1F)C1CC1` [Example 397, N-cyclopropyl-N-(5-(4-(cyclopropylamino)quinazolin-6-yl)-2-fluorobenzyl)-2-fluoro-4-(trifluoromethyl)benzamide], the inhibition at 10 µM worked out at 87%.

Turning to `CN(C)CC(=O)N(Cc1cc(-c2ccc3ncnc(NC4CC4)c3c2)ccc1F)C1CC1` [Example 398, N-cyclopropyl-N-(5-(4-(cyclopropylamino)quinazolin-6-yl)-2-fluorobenzyl)-2-(dimethylamino)acetamide], the inhibition at 10 µM came to 63%.

On to `O=S(=O)(c1c(F)c(F)c(F)c(F)c1F)N(Cc1cc(-c2ccc3ncnc(NC4CC4)c3c2)ccc1F)C1CC1` [Example 399, N-cyclopropyl-N-(5-(4-(cyclopropylamino)quinazolin-6-yl)-2-fluorobenzyl)-2,3,4,5,6-pentafluorobenzole sulfonamide], for which the “% Inhibition of mGluR5 Receptor (pig)” value came to 39%.

For `CC(C)(C)C(=O)N(Cc1cccc(-c2ccc3ncnc(NCCc4ccccc4)c3c2)c1)C1CC1` [Example 401, N-cyclopropyl-N-(3-(4-(phenethylamino)quinazolin-6-yl)benzyl)pivalamide], the inhibition at 10 µM worked out at 36%.

Take `Cc1cccc(CNc2ncnc3ccc(-c4cccc(CN(C(=O)c5cc(C)nn5C)C5CC5)c4)cc23)c1` [Example 402, N-cyclopropyl-1,3-dimethyl-N-(3-(4-(3-methylbenzylamino)quinazolin-6-yl)benzyl)-1H-pyrazole-5-carboxamide]: the inhibition at 10 µM was 34%.

Turning to `Cc1cccc(CNc2ncnc3ccc(-c4cccc(CN(C(=O)c5ccncc5)C5CC5)c4)cc23)c1` [Example 403, N-cyclopropyl-N-(3-(4-(3-methylbenzylamino)quinazolin-6-yl)benzyl)isonicotinamide], the inhibition at 10 µM is 40%.

In the case of `O=C(c1cccc(C(F)(F)F)c1)N(Cc1cc(-c2ccc3ncnc(NC4CC4)c3c2)ccc1F)C1CC1` [Example 405, N-cyclopropyl-N-(5-(4-(cyclopropylamino)quinazolin-6-yl)-2-fluorobenzyl)-3-(trifluoromethyl)benzamide], the inhibition at 10 µM came to 77%.

In the case of `O=C(Cc1ccccc1)N(Cc1cc(-c2ccc3ncnc(NC4CC4)c3c2)ccc1F)C1CC1` [Example 406, N-cyclopropyl-N-(5-(4-(cyclopropylamino)quinazolin-6-yl)-2-fluorobenzyl)-2-phenylacetamide], the inhibition at 10 µM was 95%.

As to `O=S(=O)(c1cccs1)N(Cc1cc(-c2ccc3ncnc(NC4CC4)c3c2)ccc1F)C1CC1` [Example 407, N-cyclopropyl-N-(5-(4-(cyclopropylamino)quinazolin-6-yl)-2-fluorobenzyl)thiophene-2-sulfonamide], the inhibition at 10 µM is 92%.

Regarding `CCCCC(=O)N(Cc1cccc(-c2ccc3ncnc(NCCc4ccccc4)c3c2)c1)C1CC1` [Example 409, N-cyclopropyl-N-(3-(4-(phenethylamino)quinazolin-6-yl)benzyl)pentanamide], the inhibition at 10 µM stood at 32%.

Turning to `Cc1cccc(CNc2ncnc3ccc(-c4cccc(CN(C(=O)c5cccnc5)C5CC5)c4)cc23)c1` [Example 411, N-cyclopropyl-N-(3-(4-(3-methylbenzylamino)quinazolin-6-yl)benzyl)nicotinamide], the inhibition at 10 µM turned out to be 34%.

With `O=C(c1ccccc1C(F)(F)F)N(Cc1cc(-c2ccc3ncnc(NC4CC4)c3c2)ccc1F)C1CC1` [Example 413, N-cyclopropyl-N-(5-(4-(cyclopropylamino)quinazolin-6-yl)-2-fluorobenzyl)-2-(trifluoromethyl)benzamide], the inhibition at 10 µM came out at 89%.

For `O=C(CCc1ccccc1)N(Cc1cc(-c2ccc3ncnc(NC4CC4)c3c2)ccc1F)C1CC1` [Example 414, N-cyclopropyl-N-(5-(4-(cyclopropylamino)quinazolin-6-yl)-2-fluorobenzyl)-3-phenylpropanamide], the inhibition at 10 µM is 93%.

As for `O=S(=O)(c1cccc2cccnc12)N(Cc1cc(-c2ccc3ncnc(NC4CC4)c3c2)ccc1F)C1CC1` [Example 415, N-cyclopropyl-N-(5-(4-(cyclopropylamino)quinazolin-6-yl)-2-fluorobenzyl)quinoline-8-sulfonamide], the inhibition at 10 µM worked out at 53%.

For the compound `CN(C)CC(=O)N(Cc1cccc(-c2ccc3ncnc(NCCc4ccccc4)c3c2)c1)C1CC1` [Example 417, N-cyclopropyl-2-(dimethylamino)-N-(3-(4-(phenethylamino)quinazolin-6-yl)benzyl)acetamide], the inhibition at 10 µM was 60%.

Take `CC(=O)N(Cc1cccc(-c2ccc3ncnc(NCc4cccc(C)c4)c3c2)c1)C1CC1` [Example 419, N-cyclopropyl-N-(3-(4-(3-methylbenzylamino)quinazolin-6-yl)benzyl)acetamide]: the inhibition at 10 µM was 76%.

Take `CN(c1ncnc2ccc(-c3ccc(F)c(CN(C(=O)c4ccco4)C4CC4)c3)cc12)C1CC1` [Example 420, N-cyclopropyl-N-(5-(4-(cyclopropyl(methyl)amino)quinazolin-6-yl)-2-fluorobenzyl)furan-2-carboxamide]: the inhibition at 10 µM came to 94%.

Turning to `O=C(c1cc(Cl)cc(Cl)c1)N(Cc1cc(-c2ccc3ncnc(NC4CC4)c3c2)ccc1F)C1CC1` [Example 421, 3,5-dichloro-N-cyclopropyl-N-(5-(4-(cyclopropylamino)quinazolin-6-yl)-2-fluorobenzyl)benzamide], the inhibition at 10 µM was found to be 81%.

Consider `CN(c1ncnc2ccc(-c3ccc(F)c(CN(C(=O)c4cccs4)C4CC4)c3)cc12)C1CC1` [Example 427, N-cyclopropyl-N-(5-(4-(cyclopropyl(methyl)amino)quinazolin-6-yl)-2-fluorobenzyl)thiophene-2-carboxamide], for which the inhibition at 10 µM worked out at 95%.

For the compound `O=C(c1ccccn1)N(Cc1cc(-c2ccc3ncnc(NC4CC4)c3c2)ccc1F)C1CC1` [Example 428, N-cyclopropyl-N-(5-(4-(cyclopropylamino)quinazolin-6-yl)-2-fluorobenzyl)picolinamide], the inhibition at 10 µM was found to be 96%.

Turning to `CC(C)S(=O)(=O)N(Cc1cc(-c2ccc3ncnc(NC4CC4)c3c2)ccc1F)C1CC1` [Example 429, N-cyclopropyl-N-(5-(4-(cyclopropylamino)quinazolin-6-yl)-2-fluorobenzyl)propane-2-sulfonamide], the inhibition at 10 µM is 92%.

On to `COCC(=O)N(Cc1cccc(-c2ccc3ncnc(NCc4cccc(C)c4)c3c2)c1)C1CC1` [Example 434, N-cyclopropyl-2-methoxy-N-(3-(4-(3-methylbenzylamino)quinazolin-6-yl)benzyl)acetamide], for which the inhibition at 10 µM came out at 62%.

Take `Cc1cc(C(=O)N(Cc2cc(-c3ccc4ncnc(NC5CC5)c4c3)ccc2F)C2CC2)n(C)n1` [Example 435, N-cyclopropyl-N-(5-(4-(cyclopropylamino)quinazolin-6-yl)-2-fluorobenzyl)-1,3-dimethyl-1H-pyrazole-5-carboxamide]: the inhibition at 10 µM came to 87%.

Take `O=C(c1ccncc1)N(Cc1cc(-c2ccc3ncnc(NC4CC4)c3c2)ccc1F)C1CC1` [Example 436, N-cyclopropyl-N-(5-(4-(cyclopropylamino)quinazolin-6-yl)-2-fluorobenzyl)isonicotinamide]: the inhibition at 10 µM came out at 98%.
